Test results as given in patent US7470679B2, “Constrained compounds as CGRP-receptor antagonists” (Bristol-Myers Squibb Company, priority 2006, dated 2008).

These molecules were tested against T1, CGRP receptor (Homo sapiens, UniProt O60894+Q16602) (assay: CGRP Binding Assay ([125I]-CGRP radioligand displacement, SK-N-MC homogenate)). Details: Table 1, displacement of [125I]-CGRP.
T1 sequence (Q16602 23-461): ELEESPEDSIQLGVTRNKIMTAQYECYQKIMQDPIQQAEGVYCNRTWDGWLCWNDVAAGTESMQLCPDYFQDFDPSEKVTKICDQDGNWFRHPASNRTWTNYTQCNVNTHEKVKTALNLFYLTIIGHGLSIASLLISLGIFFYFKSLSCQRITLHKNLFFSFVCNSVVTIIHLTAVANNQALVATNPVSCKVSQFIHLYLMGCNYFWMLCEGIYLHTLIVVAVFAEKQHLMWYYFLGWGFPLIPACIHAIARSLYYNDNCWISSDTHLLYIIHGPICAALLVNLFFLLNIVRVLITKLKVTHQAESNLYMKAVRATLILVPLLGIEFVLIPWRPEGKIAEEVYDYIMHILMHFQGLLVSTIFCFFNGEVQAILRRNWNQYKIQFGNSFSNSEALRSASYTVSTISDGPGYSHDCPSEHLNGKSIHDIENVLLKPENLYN
T1 sequence (O60894 27-148): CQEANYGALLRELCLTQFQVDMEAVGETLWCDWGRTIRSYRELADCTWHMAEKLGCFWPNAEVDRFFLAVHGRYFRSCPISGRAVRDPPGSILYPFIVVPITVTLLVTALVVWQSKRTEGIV
Design: endogenous in cells; host or cells: SK-N-MC cells (membrane homogenate)
Procedure: CGRP Binding Assay. Tissue Culture. SK—N-MC cells were grown at 37° C. in 5% CO2 as a monolayer in medium consisting of MEM with Earle's salts and L-glutamine (Gibco) supplemented with 10% fetal bovine serum (Gibco). Cell Pellets. The cells were rinsed twice with phosphate-buffered saline (155 mM NaCl, 3.3 mM Na2HPO4, 1.1 mM KH2PO4, pH 7.4), and incubated for 5-10 min. at 4° C. in hypotonic lysis buffer consisting of 10 mM Tris (pH 7.4) and 5 mM EDTA. The cells were transferred from plates to polypropylene tubes (16×100 mm) and homogenized using a polytron. Homogenates were centrifuged at 32,000×g for 30 min. The pellets were resuspended in cold hypotonic lysis buffer with 0.1% mammalian protease inhibitor cocktail (Sigma) and assayed for protein concentration. The SK—N-MC homogenate was then aliquoted and stored at −80° C. until needed.
Radioligand Binding Assay. The compounds of invention were solubilized and carried through serial dilutions using 100% DMSO. Aliquots from the compound serial dilutions were further diluted 25 fold into assay buffer (50 mM Tris-Cl pH 7.5, 5 mM MgCl2, 0.005% Triton X-100) and transferred (volume 50 μl) into 96 well assay plates. [^125I]-CGRP (Amersham Biosciences) was diluted to 60 pM in assay buffer and a volume of 50 μl was added to each well. SK—N-MC pellets were thawed, diluted in assay buffer with fresh 0.1% mammalian protease inhibitor cocktail (Sigma), and homogenized again. SK—N-MC homogenate (5 μg/well) was added in a volume of 100 μl. The assay plates were then incubated at room temperature for 2 h. Assays were stopped by addition of excess cold wash buffer (20 mM Tris-Cl pH 7.5, 0.1% BSA) immediately followed by filtration over glass fiber filters (Whatman GF/B) previously soaked in 0.5% PEI. Non-specific binding was defined with 1 μM beta-CGRP. Protein bound radioactivity was determined using a gamma or scintillation counter. The IC50 was defined as the concentration of a compound of invention required to displace 50% of radioligand binding.
O=C(C[C@@H]1Cc2cc(Br)c3[nH]nc(Br)c3c2CN(CC(F)(F)F)C1=O)N1CCC(c2cc3ccccc3[nH]c2=O)CC1 gave an IC50 of 0.1 to 10 nM.
O=C1OCc2c(cc(Br)c3[nH]ncc23)C[C@H]1CC(=O)N1CCC(c2cc3ccccc3[nH]c2=O)CC1 was tested, and the IC50 was 0.1 to 10 nM.
In the case of O=C(C[C@@H]1Cc2cc(Br)c3[nH]nc(Br)c3c2CN(CC(F)(F)F)C1=O)N1CCC(c2cc3cccc(F)c3[nH]c2=O)CC1, the IC50 is reported as 0.1 to 10 nM.

Same assay, conditions: Table 2, displacement of [125I]-CGRP
CC(C)(C)CN1Cc2c(ccc3[nH]ncc23)C[C@@H](CC(=O)N2CCC(n3cc(-c4ccccc4)[nH]c3=O)CC2)C1=O showed an IC50 of 10 to 100 nM.
In the case of CC(C)(C)CN1Cc2c(cc(Cl)c3[nH]ncc23)C[C@@H](CC(=O)Nc2ccc3c(c2)CC2(C3)NC(=O)NC2=O)C1=O (some centres unmarked), the IC50 is reported as 10 to 100 nM.
Work on CC(C)(C)CN1Cc2c(cc(Cl)c3[nH]ncc23)C[C@@H](CC(=O)Nc2ccc3c(c2)CCC2(C3)NC(=O)NC2=O)C1=O (some centres unmarked) yielded an IC50 of 0.1 to 10 nM.
Work on CC(C)(C)CN1Cc2c(cc(Cl)c3[nH]ncc23)C[C@@H](CC(=O)N2CCC(N3C(=O)CN(c4ccccc4)C3=O)CC2)C1=O yielded an IC50 of 10 to 100 nM.
For O=C1Nc2ccccc2CC1C1CCN(C(=O)C[C@@H]2Cc3ccc4[nH]ncc4c3CN(Cc3ccccc3)C2=O)CC1 (some centres unmarked), the IC50 was 100 to 1000 nM.
For CC(C)(C)CN1Cc2c(ccc3[nH]ncc23)C[C@@H](NC(=O)N2CCC3(CC2)CNC(=O)c2ccccc23)C1=O, the IC50 was over 1000 nM.
With CC(C)(C)CN1Cc2c(ccc3[nH]ncc23)C[C@@H](CC(=O)N2CCC(N3Cc4ccccc4NC3=O)CC2)C1=O the IC50 was 10 to 100 nM.
CC(C)(C)CN1Cc2c(cc(Cl)c3[nH]ncc23)C[C@@H](CC(=O)N2CCC(c3cc4ccccc4c[n+]3[O-])CC2)C1=O was tested, and the IC50 was 10 to 100 nM.
In the case of CC(C)(C)CN1Cc2c(ccc3[nH]ncc23)C[C@@H](CC(=O)N2CCC(N3Cc4ccccc4CC3=O)CC2)C1=O, the IC50 is reported as 100 to 1000 nM.
Work on COCCN1Cc2c(cc(Br)c3[nH]ncc23)C[C@@H](CC(=O)N2CCC(c3cc4cccc(F)c4[nH]c3=O)CC2)C1=O yielded an IC50 of 10 to 100 nM.
O=C(C[C@@H]1Cc2cc(Br)c3[nH]ncc3c2CN(CC2CC2)C1=O)N1CCC(c2cc3ccccc3[nH]c2=O)CC1 was tested, and the IC50 was 0.1 to 10 nM.
In the case of O=C1Nc2ccccc2C2(CCN(C(=O)NC3Cc4ccc5[nH]ncc5c4CN(CCc4ccncc4)C3=O)CC2)N1 (centres unmarked), the IC50 is reported as 100 to 1000 nM.
Molecule O=C(NC1Cc2ccc3[nH]ncc3c2CN(CCc2ccncc2)C1=O)N1CCC(N2Cc3ccccc3NC2=O)CC1 (centres unmarked) has an IC50 of 0.1 to 10 nM.
For O=C(C[C@@H]1Cc2cc(Cl)c3[nH]ncc3c2CN(Cc2cccnc2)C1=O)N1CCC(c2cc(-c3ccccc3)[nH]n2)CC1, the IC50 was 10 to 100 nM.
O=C1Nc2ccccc2CC1N1CCN(C(=O)C[C@@H]2Cc3ccc4[nH]ncc4c3CN(Cc3ccccc3)C2=O)CC1 (some centres unmarked) gave an IC50 of 100 to 1000 nM.
Molecule O=C(N[C@@H]1Cc2ccc3[nH]ncc3c2CN(CCN2CCOCC2)C1=O)N1CCC(N2Cc3ccccc3NC2=O)CC1 has an IC50 of 10 to 100 nM.
In the case of O=C1NCCC2(CCN(C(=O)N[C@@H]3Cc4ccc5[nH]ncc5c4CN(Cc4ccc(C(F)(F)F)cc4)C3=O)CC2)N1, the IC50 is reported as 100 to 1000 nM.

These molecules were tested against T1, CGRP receptor (assay: Cyclic AMP Functional Antagonism Assay). Details: Table 2; SK-N-MC cells, 0.3 nM CGRP, 30 min; read-out: cAMP Function IC50.
Assay type: cell-based
Design: cells that endogenously express the human CGRP receptor; endogenous in cells; host or cells: SK-N-MC cells
Procedure: Cyclic AMP Functional Antagonism Assay. Antagonism of the compounds of invention was determined by measuring the formation of cyclic AMP (adenosine 3′5′-cyclic monophosphate) in SK—N-MC cells that endogenously express the human CGRP receptor. CGRP receptor complex is coupled with Gs protein and CGRP binding to this complex leads to the cyclic AMP production via Gs-dependent activation of an adenylate cyclase (Juaneda C et al., TiPS, 2000; 21:432-438; incorporated by reference herein). Consequently, CGRP receptor antagonists inhibit CGRP-induced cyclic AMP formation in SK—N-MC cells (Doods H et al., Br J Pharmacol, 2000; 129(3):420-423); incorporated by reference herein). For cyclic AMP measurements SK—N-MC cells were incubated with 0.3 nM CGRP alone or in the presence of various concentrations of the compounds of invention for 30 min at room temperature. Compounds of invention were pre-incubated with SK—N-MC cells for 15 min before the addition of CGRP to allow receptor occupancy (Edvinsson et al., Eur J Pharmacol, 2001, 415:39-44; incorporated by reference herein). Cyclic AMP was extracted using the lysis reagent and its concentration was determined by radioimmunoassay using RPA559 cAMP SPA Direct Screening Assay Kit (Amersham Pharmacia Biotech). IC50 values were calculated using Excel fit.
With CC(C)(C)CN1Cc2c(ccc3[nH]ncc23)C[C@@H](CC(=O)N2CCC(n3cc(-c4ccccc4)[nH]c3=O)CC2)C1=O the IC50 was 10 to 100 nM.
For CC(C)(C)CN1Cc2c(ccc3[nH]ncc23)C[C@@H](CC(=O)N2CCC(N3Cc4ccccc4NC3=O)CC2)C1=O, the IC50 was 0.1 to 10 nM.
For O=C(NC1Cc2ccc3[nH]ncc3c2CN(CCc2ccncc2)C1=O)N1CCC(N2Cc3ccccc3NC2=O)CC1 (centres unmarked), the IC50 was 0.1 to 10 nM.
